≈ marks a conversion by molar mass, not a printed value.
Assays:
Solubility = format: physicochemical
cultured tumor cells = experiment: antitumor activity against cultured tumor cells (summary statement); format: cell-based
Protocol: (§1) Growth inhibition to Hela S3 cells
(§2) 0.1 Milliliter of a test compound properly diluted with an MEM culture containing 10% fetal bovine serum and 2 mM of glutamine was placed in each of 96 wells of a microtiter plate. Then, trypsinized HeLa S3 cells (ATCC HTB22) were adjusted with the above culture to form a solution containing 3×10^4 cells/ml, and 0.05 ml of the solution was added to each well.
(§3) The above plate was cultured in a carbonic acid gas incubator at 37° C. for 72 hours, and then culture supernatants were removed. 0.1 Milliliter of a culture medium containing 0.02% Neutral Red was added to each well, and the plate was cultured in the carbonic acid gas incubator at 37° C. for 1 hour to stain the cells. After culture supernatants were removed, the remainders were once washed with a physiological saline solution. Then, the dyestuff was extracted with 0.001N hydrochloric acid/30% ethanol, and the absorbance at 550 nm was measured with a microplate reader. In comparison between the absorbance of untreated cells and the absorbance of cells treated with the known concentration of the test compound, the growth inhibition ratio of the cells was calculated on the basis of the following equation. [formula] A: Absorbance of cells treated with the compound B: Absorbance of a well containing no cells
(§4) C: Absorbance of untreated cells […]

growing cells = experiment: cell cycle analyzed with a flow cytometer; format: cell-based
HeLa S3 cells = experiment: Growth inhibition to Hela S3 cells (Neutral Red staining, 72 hours); format: cell-based; conditions: Homo sapiens, 37° C., MEM with 10% fetal bovine serum, 550 nm
Protocol: as §1, §2, §3, §4

[1] = Experientia 44, 230, (1988); cited from earlier work

Row | Solubility (Solubility; in acidic water) | IC50 (HeLa S3 cells) [µg/mL] | SMILES | Solubility (Solubility; in methanol, ethyl acetate, chloroform and DMSO) | antitumor activity (cultured tumor cells) | cell cycle effect (growing cells) | antitumor activity [1]
1 | Sparingly soluble in acidic water | 87 (≈ 271 µM) | CC(=CC(=O)O)CC[C@@]1(C)[C@H](CO)CC[C@@]2(C)C(C)=CCC[C@H]12 [novel physiologically active substance] | Soluble in methanol, ethyl acetate, chloroform and DMSO | exhibits antitumor activity against cultured tumor cells | terminated the growing cells at S phase and destroyed them | 
2 |  |  | O=C(/C=C/c1ccc(O)c(O)c1)OCCc1ccccc1 [phenetyl cafeate] |  |  |  | has antitumor activity
